Data set [1] in a line: In vitro metabolism: human liver microsome (HLM) half-life. As to conditions: human liver microsomes, pH 7.4, human liver microsomes. The data set is classed as in vitro ADME. The procedure: In vitro metabolism experiments were carried out in the hepatic microsomal fractions from man. Transplant-quality human liver tissue was obtained from the International Institute for the Advancement of Medicine (Exton, Pa., USA). Microsomes were prepared according to the method described in Biochemical Pharmacology, […], 48, 2147-2156 and stored at −80° C. The concentrations of protein and cytochrome P450 were determined by standard methods described in Journal of Biological Chemistry, 1951, 193, 265-275 and Journal of Biological Chemistry, 1964, 239, 2370-2378.
Microsomal incubations (1.5 ml) were prepared containing 0.5 μM cytochrome P450, 200 mM phosphate buffer (pH 7.4), 0.1 M MgCl2, 0.1 M isocitric acid, 1 unit/ml isocitrate dehydrogenase and 20 mM β-NADP. Compounds under study were added after a 5 min preincubation at 37° C. to give an initial substrate concentration of 1 μM. The mixture was incubated at 37° C. and samples (100 μl) were removed for analysis for up to 60 min. Metabolism in samples was terminated by the addition of NaOH (0.1 M) containing an internal standard (chosen to have similar physicochemical properties to compounds under study), followed by extraction into ethyl acetate (2 ml). The extracts were evaporated to dryness and analysed by LC-MS/MS (Hewlett Packard HP1100 binary pump, Hypersil HS100 C18, 5 cm by 4.6 mm internal diameter, 5 μm column using a mobile phase of 2 mM ammonium acetate in 90:10 methanol/water, aqueous portion adjusted to pH 4 with glacial acetic acid, and a flowrate of 1 ml/min). The mass spectrometer was a Sciex API 2000 with TurbolonSpray interface using a positive ion multiple reaction monitoring (MRM) detection mode. Nitrogen was used as curtain, nebuliser, TurbolonSpray and collision gases, and the TurbolonSpray temperature was 100° C. Typical voltages were as follows: IS=5.2 kV; RNG=380 V; Q0=−10 V; IQ1=−11 V; ST=−15;RO1=−11 V; MU=gain adjusted as per Sciex user manual. Collision energy was 55 eV for high MRM, OR=65 V. Dwell time was 200 msec with a 50 msec pause. Data was acquired using MSExpress v 1.1 and processed using Macquan 1.5 (PE Sciex)). Disappearance rate constants (k) in human microsomal preparations were determined by linear regression of the log ratio (compound under study/internal standard) versus time. The in vitro human microsomal half-lives were determined according to the equation […]=In 2/k.

In data set [2] the target is T1, cGMP PDE5 (Homo sapiens, UniProt O76074).
T1 construct: The required PDE enzymes were isolated from a variety of sources, including human corpus cavernosum, human platelets; from tissue; host or cells: human corpus cavernosum tissue or human platelets
The experiment in a line: In vitro cGMP PDE5 inhibitory activity (IC50). The data set is classed as biochemical. As for the experimental part:
The compounds of the present invention are potent and selective cGMP PDE5 inhibitors. In vitro PDE inhibitory activities against cyclic guanosine 3′,5′-monophosphate (cGMP) and cyclic adenosine 3′,5′-monophosphate (cAMP) phosphodiesterases were determined by measurement of their IC50 values (the concentration of compound required for 50% inhibition of enzyme activity).
The required PDE enzymes were isolated from a variety of sources, including human corpus cavernosum, human platelets, human cardiac ventricle, human skeletal muscle and human and canine retina, essentially by the method of W. J. Thompson and M. M. Appleman (Biochem., 1971, 10, 311). In particular, the cGMP-specific PDE (PDE5) and the cGMP-inhibited cAMP PDE (PDE3) were obtained from human corpus cavernosum tissue or human platelets; the cGMP-stimulated PDE (PDE2) was obtained from human corpus cavernosum or human platelets; the calcium/calmodulin (Ca/CAM)-dependent PDE (PDE1) from human cardiac ventricle; the cAMP-specific PDE (PDE4) from recombinant clone or human skeletal muscle; and the photoreceptor PDE (PDE6) from canine or human retina. Phosphodiesterases 7-11 were generated from full length human recombinant clones transfected into SF9 cells.
Assays were performed either using a modification of the “batch” method of W. J. Thompson et al. (Biochem., 1979, 18, 5228) or using a scintillation proximity assay for the direct detection of AMP/GMP using a modification of the protocol described by Amersham pic under product code TRKQ7090/7100. In summary, the effect of PDE inhibitors was investigated by assaying a fixed amount of enzyme in the presence of varying inhibitor concentrations and low substrate, (cGMP or cAMP in a 3:1 ratio unlabelled to [^3H]-labeled at a conc ˜½ Km) such that IC50 ≅Ki. The final assay volume was made up to 102 μl with assay buffer [20 mM Tris-HCl pH 7.4, 5 mM MgCl2, 1 mg/ml bovine serum albumin]. Reactions were initiated with enzyme, incubated for 30-60 min at 30° C. to give <30% substrate turnover and terminated with 50 μl yttrium silicate SPA beads (containing 3 mM of the respective unlabelled cyclic nucleotide for PDEs 3, 9 and 11). Plates were resealed and shaken for 20 min, after which the beads were allowed to settle for 30 min in the dark and then counted on a TopCount plate reader (Packard, Meriden, Conn.). Radioactivity units were converted to % activity of an uninhibited control (100%), plotted against inhibitor concentration and inhibitor IC50 values obtained using the ‘Fit Curve’ Microsoft Excel extension or inhouse equivalent.

[3] abbreviates: bound stated, read-out: HLM half-lifes.
Where [4] appears, read: bounds for groups of Examples, read-out: IC50 values for the PDE5 enzyme.
The mark [5] stands for this setting: in vitro cGMP PDE5 inhibitory activity, Table 1, read-out: IC50.
Setting [6] is: initial substrate concentration 1 μM, 37° C., Table 2, read-out: HLM t1/2.

As usually defined, the melting point is the temperature, or range, at which the solid turns liquid. As usually defined, the IC50 is the concentration at which inhibition is half-maximal.

Molecules are shown by their SMILES. Like-named read-outs stand apart in the source and are kept apart here.

The compound `CCc1c2nc(-c3cc(S(C)(=O)=O)ccc3OCC(C)C)[nH]c(=O)c2nn1Cc1nccn1C` [Example 9, 3-Ethyl-5-[2-isobutoxy-5-(methylsulfonyl)phenyl]-2-[(1-methyl-1H-imidazol-2-yl)methyl]-2,6-dihydro-7H-pyrazolo[4,3-d]pyrimidin-7-one] came in with a melting point of 253 to 254 °C. Also, the half-life at 1 μM in data set [1] (setting [3]) was at least 30 min. The IC50 in data set [2] (setting [4]) is under 10 nM. The half-inhibitory concentration (IC50) in data set [2] (setting [5]) was determined as 3.95 nM.

With `CCc1c2nc(-c3cc(S(C)(=O)=O)ccc3OCC(C)C)[nH]c(=O)c2nn1C[C@H]1CCCN1C` [Example 14, 3-Ethyl-5-[2-isobutoxy-5-(methylsulfonyl)phenyl]-2-{[(2R)-1-methylpyrrolidinyl]methyl}-2,6-dihydro-7H-pyrazolo[4,3-d]pyrimidin-7-one], the melting point lay within 178 to 180 °C. In data set [1] (setting [3]), the half-life at 1 μM is at least 30 min. Besides, the IC50 in data set [2] (setting [4]) is under 10 nM. Also, the IC50 in data set [2] (setting [5]) was 8.3 nM.

`CCCc1nn(C)c2c(=O)[nH]c(-c3cc(S(C)(=O)=O)ccc3OCC)nc12` [Example 1, 5-[2-Ethoxy-5-(methylsulfonyl)phenyl]-1-methyl-3-propyl-1,6-dihydro-7H-pyrazolo[4,3-d]pyrimidin-7-one]: the melting point was 235 to 236 °C. Also, the half-life at 1 μM in data set [1] (setting [3]) was at least 30 min. In addition, the half-life at 1 μM in data set [1] (setting [6]) was found to be 67 min. Moreover, the IC50 in data set [2] (setting [4]) was under 10 nM. In data set [2] (setting [5]), the IC50 stood at 5.6 nM.

In the case of `CCCOc1ccc(S(C)(=O)=O)cc1-c1nc2c(CC)nn(Cc3ccccn3)c2c(=O)[nH]1` [Example 11, 3-Ethyl-5-[5-(methylsulfonyl)-2-propoxyphenyl]-1-(2-pyridinylmethyl)-1,6-dihydro-7H-pyrazolo[4,3-d]pyrimidin-7-one], the half-life at 1 μM in data set [1] (setting [3]) was at least 30 min. Besides, the concentration for half-maximal inhibition (IC50) in data set [2] (setting [4]) is under 10 nM; in data set [2] (setting [5]) it was 1.4 nM.

Take `CCCOc1ccc(S(C)(=O)=O)cc1-c1nc2c(CC)n(CC3CC3)nc2c(=O)[nH]1` [Example 12, 2-(Cyclopropylmethyl)-3-ethyl-5-[5-(methylsulfonyl)-2-propoxyphenyl]-2,6-dihydro-7H-pyrazolo[4,3-d]pyrimidin-7-one]: the melting point lay in the range of 233 to 234 °C. Also, the half-life at 1 μM in data set [1] (setting [3]) is at least 30 min. In data set [1] (setting [6]), the half-life at 1 μM was over 120 min. The 50% inhibitory concentration (IC50) in data set [2] (setting [4]) is under 10 nM. Also, the IC50 in data set [2] (setting [5]) came to 1 nM.

The compound `CCCCOc1ccc(S(C)(=O)=O)cc1-c1nc2c(CC)n(CCOC)nc2c(=O)[nH]1` [Example 2, 5-[2-Butoxy-5-(methylsulfonyl)phenyl]-3-ethyl-2-(2-methoxyethyl)-2,6-dihydro-7H-pyrazolo[4,3-d]pyrimidin-7-one] displayed a melting point of 174 to 176 °C. In addition, the half-life at 1 μM in data set [1] (setting [3]) is at least 30 min. Besides, in data set [2] (setting [4]), the half-maximal inhibitory concentration (IC50) is under 10 nM. Also, the concentration for half-maximal inhibition (IC50) in data set [2] (setting [5]) was found to be 6.5 nM.

On to `CCCCOc1ccc(S(C)(=O)=O)cc1-c1nc2c(CC)n(C3CN(C(C)C)C3)nc2c(=O)[nH]1` [Example 19, 5-[2-Butoxy-5-(methylsulfonyl)phenyl]-3-ethyl-2-(1-isopropyl-3-azetidinyl)-2,6-dihydro-7H-pyrazolo[4,3-d]pyrimidin-7-one], for which the melting point was in the range of 209 to 213 °C. In addition, the half-life at 1 μM in data set [1] (setting [3]) was at least 30 min. In addition, the IC50 in data set [2] (setting [4]) was under 10 nM. In addition, in data set [2] (setting [5]), the IC50 turned out to be 6.6 nM.

Regarding `CCCOc1ccc(S(C)(=O)=O)cc1-c1nc2c(CC)nn(C[C@@H]3CCCN3C)c2c(=O)[nH]1` [Example 18, 3-Ethyl-1-{[(2S)-1-methylpyrrolidinyl]methyl}-5-[5-(methylsulfonyl)-2-propoxyphenyl]-1,6-dihydro-7H-pyrazolo[4,3-d]pyrimidin-7-one], the melting point lay in the range of 211 to 215 °C. Also, the half-life at 1 μM in data set [1] (setting [3]) was at least 30 min. In addition, the concentration for half-maximal inhibition (IC50) in data set [2] (setting [4]) is under 10 nM. The IC50 in data set [2] (setting [5]) was 5.4 nM.
